The values below come from US20240116910A1, “Heterocycles as WIP1 Inhibitors” (PMV Pharmaceuticals, Inc., priority 2022, published 2024).

SMILES strings stand for the structures.

Assay [1] concerns the target recombinant His-tag Wip1 full length protein (amino acids #1-605) (Homo sapiens (Human), UniProt O15297). Kind of assay: Wip1 full length phosphatase enzyme FDP assay. It is filed as biochemical. As to conditions: fluorescein diphosphate (FDP) substrate, RT 2 hours, fluorescence Ex485/Em535. The method, then:
The Human Wip1 (2-420, aa 2-420) or Wip1 full length (aa 1-605) DNA sequence was codon optimized and synthesized by Genscript for insect cell expression. The open reading frame of Wip1(2-420) with a N-terminal-His6 affinity tag followed by a TEV cleavage site was subcloned sites into the pFastBac1 expression vector. The recombinant bacmid DNA was transfected in Sf9 insect cells for baculovirus production. After 72 hours infection, the Sf9 cells were harvested by centrifugation and resuspended in lysis buffer containing 50 mM Tris/HCl, pH 8.0, 500 mM NaCl, 20% glycerol, Benzonase 0.5% CHAPS and Roche cOmplete™ EDTA free protease inhibitors. Cells were disrupted with microfluidizer and the debris was removed by centrifugation at 185,000 g for 1 hour. The supernatant was subjected to HisTrap FF for affinity purification. Proteins were eluted with a linear gradient of 0-500 mM imidazole in HisTrap buffer containing 50 mM Tris/HCl, pH 8.0, 500 mM NaCl and 20% glycerol, 0.05% CHAPS. The eluted protein was dialyzed against dialysis buffer (20 mM MES, 100 mM NaCl, 20% glycerol, 0.5 mM TCEP, 0.05% CHAPS) followed purification via HiTrap SP HP column. The protein was eluted with a gradient of 100 mM-2 M NaCl in dialysis buffer. His6-[…] was finally concentrated and loaded onto a size-exclusion column (NiLoad 16/600 Superdex 200 pg, GE Healthcare) pre-equilibrated with 50 mM MOPS (pH 7.5), 200 mM NaCl, 20% glycerol, 1 mM TCEP, 0.05% CHAPS and 0.1 mM EGTA. The peak fractions containing purified Nis6-Wip1(2-420) were pooled and concentrated to 1.0 mg/mL and flash frozen at −80° C.
Wip1 Length and Wip1(2-420) Phosphatase Enzyme FDP Assays.
Test compounds (252 mM stock in DMSO) were diluted 3 folds in series in DMSO and 1.2 μl per well were added into 384-well polypropylene black plates (Nunc). Twelve μl per well of Assay Buffer (100 mM NaCl, 50 mM MOPS, pH 7.5, 0.8 mM CHAPS, 0.1 mM EGTA, 30 mM MgCl2, 0.3 mM TCEP, 0.2 mg/mL BSA) was added followed by […] per well of 50.4 nM recombinant His-tag Wip1 full length protein (amino acids #1-605) or recombinant His-tag Wip1(2-420) protein (amino acids #2-420) in Assay Buffer and the plate was incubated at RT (22° C.) for 5 min. Ten mM of fluorescein diphosphate (FDP) in DMSO was diluted to […] in Assay Buffer and […] per well was added to the plate and incubated at RT (22° C.) for 2 hours. […] per well of 64.1 mM EDTA in water were added to stop the enzyme reaction. The plate was centrifuged at 1,200 rpm (Eppendorf 5810R Plate centrifuge) for 1 minute and fluorescence intensity (Ex485/Em535) was measured on Perkin Elmer Victor Reader. EC50 values were calculated using either Prism (GraphPad) or ActivityBase software (IDBS), The IC50 results are provided in Table M.

Assay [2] deals with recombinant His-tag Wip1(2-420) protein (amino acids #2-420) (Homo sapiens (Human), UniProt O15297). Briefly: Wip1(2-420) phosphatase enzyme FDP assay. It is filed as biochemical. Particulars: fluorescein diphosphate (FDP) substrate, RT 2 hours, fluorescence Ex485/Em535; read-out: WIP1 (Truncated 2-420) FDP Assay: IC50.
recombinant His-tag Wip1(2-420) protein (amino acids #2-420), sequence (O15297 2-420): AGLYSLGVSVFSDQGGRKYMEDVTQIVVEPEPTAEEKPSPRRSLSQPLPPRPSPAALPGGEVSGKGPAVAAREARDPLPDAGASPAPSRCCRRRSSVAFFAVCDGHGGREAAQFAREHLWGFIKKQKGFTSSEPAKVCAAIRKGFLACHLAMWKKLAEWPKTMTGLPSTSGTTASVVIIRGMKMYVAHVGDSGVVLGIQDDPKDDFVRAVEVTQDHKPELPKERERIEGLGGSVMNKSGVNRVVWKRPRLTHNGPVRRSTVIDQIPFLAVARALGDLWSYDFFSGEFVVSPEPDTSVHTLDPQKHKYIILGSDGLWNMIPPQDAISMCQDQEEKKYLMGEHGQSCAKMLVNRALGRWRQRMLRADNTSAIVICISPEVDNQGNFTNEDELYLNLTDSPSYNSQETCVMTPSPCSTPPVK

recombinant His-tag Wip1 full length protein (amino acids #1-605), sequence (O15297 whole entry, the tested form may be a part): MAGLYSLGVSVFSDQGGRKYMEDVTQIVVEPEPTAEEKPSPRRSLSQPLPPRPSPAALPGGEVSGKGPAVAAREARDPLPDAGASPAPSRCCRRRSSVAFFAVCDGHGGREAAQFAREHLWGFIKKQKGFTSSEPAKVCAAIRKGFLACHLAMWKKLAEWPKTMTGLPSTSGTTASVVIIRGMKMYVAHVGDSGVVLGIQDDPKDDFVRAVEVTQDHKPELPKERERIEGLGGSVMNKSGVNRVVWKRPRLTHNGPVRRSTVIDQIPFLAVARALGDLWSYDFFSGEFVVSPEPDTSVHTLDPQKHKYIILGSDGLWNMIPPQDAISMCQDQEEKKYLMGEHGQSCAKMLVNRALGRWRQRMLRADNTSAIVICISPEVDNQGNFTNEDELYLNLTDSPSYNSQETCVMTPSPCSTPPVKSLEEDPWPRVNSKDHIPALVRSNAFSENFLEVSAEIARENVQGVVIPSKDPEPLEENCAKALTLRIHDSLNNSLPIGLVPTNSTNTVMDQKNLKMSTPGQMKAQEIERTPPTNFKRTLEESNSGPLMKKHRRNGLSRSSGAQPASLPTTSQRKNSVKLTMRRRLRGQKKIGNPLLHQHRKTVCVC

The term IC50 denotes the concentration that gives 50% inhibition. As to `Cc1cc(NC(=O)[C@H](CC2CCCC2)NC(=O)c2ccc([C@H](C)Nc3cc(Cl)cnc3C)s2)cc(C)n1` [Compound 62, (2S)-2-({5-[(1S)-1-[(5-chloro-2-methylpyridin-3-yl)amino]ethyl]thiophen-2-yl}formamido)-3-cyclopentyl-N-(2,6-dimethylpyridin-4-yl)propanamide], the IC50 in assay [1] is 10 nM; in assay [2], 6 nM. As for `Cc1ncc(Cl)cc1N[C@@H](C)c1ccc(C(=O)N[C@@H](CC2CCCC2)C(=O)NC2CC2)s1` [Compound 8, 5-[(1S)-1-[(5-chloro-2-methyl-3-pyridyl)amino]ethyl]-N-[(1S)-1-(cyclopentylmethyl)-2-(cyclopropylamino)-2-oxo-ethyl]thiophene-2-carboxamide], the IC50 in assay [1] was 11 nM; in assay [2], 8 nM. Take `COc1cc(NC(=O)[C@H](CC2CCCC2)NC(=O)c2ccc([C@H](C)Nc3cc(Cl)cnc3C)s2)ccc1F` [Compound 69, (2S)-2-({5-[(1S)-1-[(5-chloro-2-methylpyridin-3-yl)amino]ethyl]thiophen-2-yl}formamido)-3-cyclopentyl-N-(4-fluoro-3-methoxyphenyl)propanamide]: the IC50 in assay [1] came to 7 nM; in assay [2], 4 nM. For `Cc1cc(NC(=O)[C@H](CC2CCCC2)NC(=O)c2cnc([C@H](C)Nc3cccc(Cl)c3)s2)ccn1` [Compound 119, (2S)-2-({2-[(1S)-1-[(3-chlorophenyl)amino]ethyl]-1,3-thiazol-5-yl}formamido)-3-cyclopentyl-N-(2-methylpyridin-4-yl)propanamide], the half-maximal inhibitory concentration (IC50) stood at 115 nM in assay [1] and 70 nM in assay [2]. Consider `COc1ncc(Cl)cc1N[C@H](C)c1ccc(C(=O)N[C@@H](CC2CCCC2)C(=O)NC23CC(C#N)(C2)C3)s1` [Compound 83, (2S)-2-({5-[(1R)-1-[(5-chloro-2-methoxypyridin-3-yl)amino]ethyl]thiophen-2-yl}formamido)-N-{3-cyanobicyclo[1.1.1]pentan-1-yl}-3-cyclopentylpropanamide], for which the half-maximal inhibitory concentration (IC50) in assay [2] was found to be 484 nM. Turning to `COc1cnc2ccc(NC(=O)[C@H](CC3CCCC3)NC(=O)c3ccc([C@H](C)Nc4cc(Cl)cnc4C)s3)cc2c1` [Compound 180, (2S)-2-({5-[(1S)-1-[(5-chloro-2-methylpyridin-3-yl)amino]ethyl]thiophen-2-yl}formamido)-3-cyclopentyl-N-(3-methoxyquinolin-6-yl)propanamide], the IC50 in assay [2] turned out to be 4 nM. Take `C[C@H](Nc1cc(Cl)nc2ccnn12)c1ccc(C(=O)N[C@@H](CC2CCCC2)C(=O)NC2CC2)s1` [Compound 260, (2S)-2-({5-[(1S)-1-({5-chloropyrazolo[1,5-a]pyrimidin-7-yl}amino)ethyl]thiophen-2-yl}formamido)-3-cyclopentyl-N-cyclopropylpropanamide]: in assay [2], the IC50 came to 210 nM. Consider `COC(=O)CNC(=O)[C@H](CC1CCCC1)NC(=O)c1ccc([C@H](C)Nc2cc(Cl)cnc2C)s1` [Compound 91, methyl 2-[(2S)-2-({5-[(1S)-1-[(5-chloro-2-methylpyridin-3-yl)amino]ethyl]thiophen-2-yl}formamido)-3-cyclopentylpropanamido]acetate], for which the IC50 in assay [2] was 19 nM. In the case of `COc1cccc(-c2ncc(Cl)cc2N[C@H](C)c2ccc(C(=O)N[C@@H](CC3CCCC3)C(=O)NC3CC3)s2)c1` [Compound 268, (2S)-2-({5-[(1R)-1-{[5-chloro-2-(3-methoxyphenyl)pyridin-3-yl]amino}ethyl]thiophen-2-yl}formamido)-3-cyclopentyl-N-cyclopropylpropanamide], the IC50 in assay [2] is 482 nM. For `Cc1cc(NC(=O)[C@H](CC2CCCC2)NC(=O)c2ccc(C(C)(C)Nc3cc(Cl)cnc3C)s2)ccn1` [Compound 270, (2S)-2-[(5-{2-[(5-chloro-2-methylpyridin-3-yl)amino]propan-2-yl}thiophen-2-yl)formamido]-3-cyclopentyl-N-(2-methylpyridin-4-yl)propanamide], in assay [2], the IC50 was 6 nM. Regarding `Cc1ncc(Cl)cc1N[C@@H](C)c1ccc(C(=O)N[C@@H](CC2CCCC2)C(=O)Nc2cnn(C3CCN(C)CC3)c2)s1` [Compound 152, (2S)-2-({5-[(1S)-1-[(5-chloro-2-methylpyridin-3-yl)amino]ethyl]thiophen-2-yl}formamido)-3-cyclopentyl-N-[1-(1-methylpiperidin-4-yl)-1H-pyrazol-4-yl]propanamide], in assay [2], the IC50 is 6 nM.

On to `Cc1ncc(Cl)cc1N[C@@H](C)c1ccc(C(=O)N[C@@H](CC2CCC3CC32)C(=O)NC2CC2)s1` (stereo partly drawn) [Compound 92, (2S)-3-{bicyclo[3.1.0]hexan-2-yl}-2-({5-[(1S)-1-[(5-chloro-2-methylpyridin-3-yl)amino]ethyl]thiophen-2-yl}formamido)-N-cyclopropylpropanamide], for which the IC50 in assay [2] stood at 10 nM. The same measure, in the same setting: next, `O=C(N[C@@H](CC1CCCC1)C(=O)NC1CC1)c1ccc([C@H]2CCc3c(Cl)cccc3N2)s1` [Compound 251, (2S)-2-({5-[(2R)-5-chloro-1,2,3,4-tetrahydroquinolin-2-yl]thiophen-2-yl}formamido)-3-cyclopentyl-N-cyclopropylpropanamide]: 678 nM. `Cc1ncc(Cl)cc1N[C@@H](C)c1ccc(C(=O)N[C@@H](CC2CCC3CC32)C(=O)NC23CC(C2)C3)s1` (stereo partly drawn) [Compound 110, (2S)-N-{bicyclo[1.1.1]pentan-1-yl}-3-{bicyclo[3.1.0]hexan-2-yl}-2-({5-[(1S)-1-[(5-chloro-2-methylpyridin-3-yl)amino]ethyl]thiophen-2-yl}formamido)propanamide]: the IC50 in assay [2] worked out at 6 nM.

As for `COc1ccc(NC(=O)[C@H](CC2CCCC2)NC(=O)c2ccc([C@H](C)Nc3cc(Cl)cnc3C)s2)cn1` [Compound 276, (2S)-2-({5-[(1S)-1-[(5-chloro-2-methylpyridin-3-yl)amino]ethyl]thiophen-2-yl}formamido)-3-cyclopentyl-N-(6-methoxypyridin-3-yl)propanamide], the IC50 in assay [2] came to 5 nM. Turning to `Cc1ncc(Cl)cc1N[C@@H](C)c1ccc(C(=O)N[C@@H](CC2CCC3CC32)C(=O)N[C@H]2C[C@H](F)C2)s1` (stereo partly drawn) [Compound 116, (2S)-3-{bicyclo[3.1.0]hexan-2-yl}-2-({5-[(1S)-1-[(5-chloro-2-methylpyridin-3-yl)amino]ethyl]thiophen-2-yl}formamido)-N-[(1r,3r)-3-fluorocyclobutyl]propanamide], the IC50 in assay [2] was found to be 10 nM. Still for that read-out and setting: to `CC(Nc1cc(Cl)cnc1C(N)=O)c1ccc(C(=O)N[C@@H](CC2CC3CC3C2)C(=O)Nc2cnn(C)c2)s1` (stereo partly drawn) [Compound 146, 3-{[1-(5-{[(1S)-2-{bicyclo[3.1.0]hexan-3-yl}-1-[(1-methyl-1H-pyrazol-4-yl)carbamoyl]ethyl]carbamoyl}thiophen-2-yl)ethyl]amino}-5-chloropyridine-2-carboxamide] belongs 15 nM; to `COC(=O)c1ncc(Cl)cc1N[C@@H](C)c1ccc(C(=O)N[C@@H](CC2CCCC2)C(=O)NC2CC2)s1` [Compound 102, methyl 5-chloro-3-{[(1S)-1-(5-{[(1S)-2-cyclopentyl-1-(cyclopropylcarbamoyl)ethyl]carbamoyl}thiophen-2-yl)ethyl]amino}pyridine-2-carboxylate], 10 nM. On the same count and under the same terms, to `C[C@@H](Nc1cc(Cl)cnc1-c1cccnc1)c1ccc(C(=O)N[C@@H](CC2CCCC2)C(=O)NC2CC2)s1` [Compound 233, (2S)-2-({5-[(1R)-1-({5-chloro-[2,3′-bipyridin]-3-yl}amino)ethyl]thiophen-2-yl}formamido)-3-cyclopentyl-N-cyclopropylpropanamide] belongs 293 nM.
